Measurements as given in patent publication US6372749B1, “Pyrazolo[1,5-a]pyrimidine derivatives” (Otsuka Pharmaceutical Factory, Inc., priority 1998, dated 2002).

What was measured:
S.D. rats = test: Recovery of pain threshold after substance P injection (Randall-Sellitto method); type: in vivo; conditions: male S.D. rats, oral 5% gum arabic suspension 10 ml/kg, substance P 25 ng/0.1 ml s.c. in left hind paw
Protocol: Using 6-week-old male S.D. rats (7 rats in each group), the pain threshold of each rat's left hind paw plantar was measured using an Analgesy-Meter (product of Unicom) in accordance with the Randall-Sellitto method [Randall, L. O. and Sellitto, J. J., Arch. Int. Pharmacodyn., 111, 409 (1957)]. The value thus obtained was termed “pre-value”.
One hour after the measurement of the pre-value, a 5% gum arabic suspension containing the compound of the invention was orally administered to the rats of the test group in an amount of 10 ml/kg, whereas a 5% gum arabic suspension (not containing the compound of the invention) was orally administered to the rats of the control group in an amount of 10 ml/kg.
One hour later, a physiological saline solution containing substance P (25 ng/0.1 ml) was subcutaneously injected into the left hind paw plantar of each rat.
The pain threshold of each rat's left hind paw was measured in the same manner as above at predetermined time intervals from the substance P injection. The measured value was termed “post-value”.
The recovery (%) of the pain threshold was calculated from the post-values and the pre-values of the test group and the control group, by means of the following formula: [formula]

[1] = time of measurement 60 minutes later

SMILES | Recovery (%) of the pain threshold (the highest recovery %) (S.D. rats; [1]) [%] | Recovery (%) of the pain threshold (the highest recovery %) (S.D. rats; time of measurement 30 minutes later) [%] | melting point
CCCCc1cc(/C=C/c2cc(OC)c(OC)c(OC)c2)n2nccc2n1 [Example 1, (E)-5-n-butyl-7-[2-(3,4,5-trimethoxyphenyl)ethenyl]pyrazolo[1,5-a]pyrimidine] | 47.8 |  | 
CCCCc1cc(/C=C/c2ccc(Cl)cc2)n2nccc2n1 [Example 8, (E)-5-n-butyl-7-[2-(4-chlorophenyl)ethenyl]pyrazolo[1,5-a]pyrimidine] |  | 36.2 | 
CCCCc1cc(/C(=C/c2cc(OC)c(OC)c(OC)c2)SC)n2nccc2n1 [Example 12, (Z)-5-n-butyl-7-[1-methylthio-2-(3,4,5-trimethoxyphenyl)ethenyl]pyrazolo[1,5-a]pyrimidine] | 41.5 |  | 
CCCCc1cc(/C(=C\c2cc(OC)c(OC)c(OC)c2)C(=O)O)n2nccc2n1 [Example 40, (E) 2-(5-n-butylpyrazolo[1,5-a]pyrimidin-7-yl)-3-(3,4,5-trimethoxyphenyl)acrylic Acid] | 47.2 |  | 
CCCCc1cc(/C(=C\c2cc(OC)c(O)c(OC)c2)C(=O)O)n2nccc2n1 [Example 109, (E) 2-(5-n-butylpyrazolo[1,5-a]pyrimidin-7-yl)-3-(4-hydroxy-3,5-dimethoxyphenyl)acrylic acid] | 52.1 |  | > 152 °C (dec.)
